# Measured values published in PMC11600510 (Journal of Chemical Information and Modeling, 2024).
# Legend:
# [1] = target: T1, Spike RBD/ACE2 (19–615) interaction (Severe acute respiratory syndrome coronavirus 2, UniProt P0DTC2); assay: cell-based; format: cell-based, SARS-CoV-2; settings: HEK-293T, 48 h, read-out: suppression of Spike RBD/ACE2 (19–615) interaction
# T1 construct: S protein RBD (aa residues 319–541) of SARS-CoV-2; expressed in transfected cells; host or cells: HEK293T
# [2] = Metabolic stability in human liver microsomes; format: in vitro ADME
# Description: CKP-25 was studied for its metabolic stability. In particular, the metabolic stability of a compound can be interpreted using several approaches, as it can be ranked in terms of its intrinsic clearance (CLint) and in vitro t1/2 values or based on parent structure loss during metabolic reactions[96],[97] CLin describes the maximum activity of liver (microsomal proteins or hepatocytes) toward a compound not influenced by other physiological determinants, such as hepatic blood flow and drug binding within the blood matrix and in vitro t1/2 expresses the time for 50% disappearance of the compound. Parent structure loss was our option for metabolic stability data interpretation of CKP-25. Parent structure loss is classified as very slow (<5%), slow (5–19%), moderate (20–50%), fast (50–80%) or very fast (>80%). Such categories have been defined according to set criteria, namely, high metabolism (t1/2 value of <30 min), moderate metabolism (30 min < t1/2 value of <60 min) and low metabolism (t1/2 value of >60 min).[98]−[100]
# Metabolic stability was evaluated using pooled human liver microsomes at a 0.5 mg/mL concentration. […] Each test-compound was assessed at a concentration of 1 μM. […] The depletion of test compounds was then profiled, and the residual percentage compared to time zero was determined. The readouts were recorded using a Lionheart FX system from Agilent BioTek (Winooski, VT, USA).
# [3] = test system: SARS-CoV-2; assay: microbe, parasite or virus in culture; format: cell-based
# [4] = target: T2, CYP1A2 (Homo sapiens, UniProt P05177); assay: Isozyme-specific CYP450 inhibition; format: in vitro ADME; settings: recombinant human CYP1A2 with CYP450 reductase (Baculosomes), probe fluorescent substrate (not named)
# T2 construct: purchased Thermo Fisher Scientific; host or cells: Baculosomes
# T2 sequence (P05177 2-516 limits assumed): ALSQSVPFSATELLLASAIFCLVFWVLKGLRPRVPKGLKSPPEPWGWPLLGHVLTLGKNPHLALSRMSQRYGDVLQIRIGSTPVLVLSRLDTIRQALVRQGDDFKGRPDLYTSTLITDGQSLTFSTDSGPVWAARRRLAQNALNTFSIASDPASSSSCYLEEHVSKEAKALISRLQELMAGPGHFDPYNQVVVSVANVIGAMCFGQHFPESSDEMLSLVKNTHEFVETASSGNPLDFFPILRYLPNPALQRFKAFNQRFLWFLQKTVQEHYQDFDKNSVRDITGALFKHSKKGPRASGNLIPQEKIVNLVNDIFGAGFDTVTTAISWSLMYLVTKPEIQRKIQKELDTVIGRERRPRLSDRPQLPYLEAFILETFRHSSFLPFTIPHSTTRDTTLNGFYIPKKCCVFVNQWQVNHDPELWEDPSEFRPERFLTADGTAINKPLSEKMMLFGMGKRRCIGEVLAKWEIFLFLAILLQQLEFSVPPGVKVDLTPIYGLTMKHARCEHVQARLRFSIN
# Protocol: (§1) For this, the activity of CYP1A2, CYP2A6, CYP2B6, CYP2C9, CYP2C19, CYP2D6, and CYP3A4 was assessed after the administration of CKP-25 at 1 μM to determine (a) the oxidative (CYP-mediated) metabolic stability profile in question and (b) the enzyme metabolizing isoforms responsible (the test system consists of recombinant human CYP450 and CYP450 reductase; cytochrome b5 may also be present). Herein, no concentration-dependent effects were reported. […] No product inhibition or mechanism-based inactivation of the CYP450 isoenzymes in question was obtained. Test-compounds with poor solubility can show artificially low CYP450 inhibition and thus, chemical entities with potential drug–drug interaction toxicities may be overlooked.
# (§2) Human cytochrome P450 (CYP450) isoenzymes were expressed in Baculosomes obtained from Thermo Fisher Scientific (Waltham, MA, USA). Reagents were handled and prepared following the manufacturer’s guidelines. Compound CKP-25 was evaluated at a concentration of 1 μM according to our established standard operating procedures and protocols as described previously.[127],[128] The enzymatic activity of various CYP450 isoforms (CYP1A2, CYP2A6, CYP2B6, CYP2C9, CYP2C19, CYP2D6, and CYP3A4) was measured, considering the kinetic model for each isoform. The reactions were conducted in triplicate at 20 °C. NADP+ (10 mM in 100 mM potassium phosphate, pH 8.0) was converted to NADPH using a regeneration system containing glucose-6-phosphate (333 mM) and glucose-6-phosphate dehydrogenase (30 U/mL in 100 mM potassium phosphate, pH 8.0). Upon the addition of the fluorescent substrate, signal monitoring was performed immediately (within 2 min) using appropriate excitation and emission wavelengths, recorded by an Agilent BioTek Lionheart FX (Winooski, VT, USA). CYP450 inhibition (%) was calculated based on the reaction rates (fluorescence intensity changes per unit time). In total, n = 60 meaurements per minute were recorded over a 60 min period. [drawing 2] where X, the rate observed in the presence of a test-compound; A, the rate observed in the presence of negative (solvent, DMSO) control.
# [5] = target: T3, CYP2C9 (Homo sapiens, UniProt P11712); assay: Isozyme-specific CYP450 inhibition; format: in vitro ADME; settings: recombinant human CYP2C9 with CYP450 reductase (Baculosomes), probe fluorescent substrate (not named)
# T3 construct: purchased Thermo Fisher Scientific; host or cells: Baculosomes
# T3 sequence (P11712 whole entry): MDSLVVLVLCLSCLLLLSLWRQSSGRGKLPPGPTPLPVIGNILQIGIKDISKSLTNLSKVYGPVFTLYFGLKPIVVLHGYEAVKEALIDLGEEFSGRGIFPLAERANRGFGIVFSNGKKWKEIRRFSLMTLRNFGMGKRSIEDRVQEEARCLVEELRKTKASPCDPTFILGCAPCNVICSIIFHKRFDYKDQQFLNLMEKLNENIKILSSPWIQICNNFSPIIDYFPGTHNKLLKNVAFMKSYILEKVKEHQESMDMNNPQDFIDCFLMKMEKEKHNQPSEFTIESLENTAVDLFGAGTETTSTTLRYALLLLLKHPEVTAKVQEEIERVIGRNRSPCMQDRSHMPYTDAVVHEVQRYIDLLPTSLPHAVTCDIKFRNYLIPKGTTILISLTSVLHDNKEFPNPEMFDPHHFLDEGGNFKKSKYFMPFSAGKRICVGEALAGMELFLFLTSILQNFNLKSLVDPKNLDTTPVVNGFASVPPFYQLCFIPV
# Protocol: as §1, §2
# [6] = test system: CYP450 system; assay: Isozyme-specific CYP450 study, overall statement; format: in vitro ADME, human; settings: 1 μM
# Protocol: as §1, with “Test-compounds with poor solubility can show artificially low CYP450 inhibition and thus, chemical entities with potential drug–drug interaction toxicities may be overlooked.” left out
# Human cytochrome P450 (CYP450) isoenzymes were expressed in Baculosomes obtained from Thermo Fisher Scientific (Waltham, MA, USA). […] Compound CKP-25 was evaluated at a concentration of 1 μM according to our established standard operating procedures and protocols as described previously.[127],[128] The enzymatic activity of various CYP450 isoforms (CYP1A2, CYP2A6, CYP2B6, CYP2C9, CYP2C19, CYP2D6, and CYP3A4) was measured, considering the kinetic model for each isoform. […] Upon the addition of the fluorescent substrate, signal monitoring was performed immediately (within 2 min) using appropriate excitation and emission wavelengths, recorded by an Agilent BioTek Lionheart FX (Winooski, VT, USA). CYP450 inhibition (%) was calculated based on the reaction rates (fluorescence intensity changes per unit time). […]
# [7] = test system: SARS-CoV-2; format: cell-based
compound,measurement,setting,value
"COc1cccc2c1ncn2Cc1ccc2ccccc2c1 [CKP-25, 4-Methoxy-1-(naphthalen-2-ylmethyl)-1H-benzo[d]imidazole]",inhibition at 25 µM,[1],34%
same,substrate depletion (in words),[2],slow substrate depletion
same,effect on the cytopathic effect of SARS-CoV-2 (in words),[3],consistently reduced the cytopathic effect
same,IC50,"[3]; Severe acute respiratory syndrome coronavirus 2, Vero C1008, 48 h, read-out: IC50, SARS-CoV-2 CPE",3.5 µM
same,"inhibition at 60 min, 1 µM",[4],0%
same,"inhibition at 60 min, 1 µM",[5],11%
same,inhibition of the CYP450 system (in words),[6],weak inhibitor
same,solubility issues in the CYP450 assay,[6],No solubility issues
same,reduction of the viral titter (TCID50),[7],approximately 90%
